Experimental data published in US5929035A, “Methods of treating intestinal disorders” (Regents of the University of Michigan, priority 1998, dated 1999).
Several values for one entry are separate records, joined by “and”; a condition that tells them apart may be missing. Equal entries are not always repeated. Where two headings read alike, the source gives them in different places.

Key:
[1] = system: longitudinal muscle strips from rat gastric body
[2] = system: longitudinal muscle from rat proximal colon
[3] = system: longitudinal muscle strips from rat ileum
[4] = system: longitudinal muscle strips from rat proximal colon
post-operative ileus = conditions: cited from earlier work
IBS patients = conditions: literature; cited from earlier work
colonic motility = conditions: literature; cited from earlier work
[5] = system: longitudinal muscle strips of proximal colon from BAC- or vehicle-treated rats; experiment: Benzalkonium chloride (BAC) myenteric plexus ablation, organ bath experiments; design: species or system rat
Excerpt: This example examined benzalkonium chloride (BAC)-treatment. […] EFS caused frequency-dependent and TTX-sensitive contractions in vehicle-treated tissues but not BAC-treated tissues. However, carbachol contracted both vehicle- and BAC-treated tissues with the same degree. These previous studies indicate that chronic ablation of the myenteric plexus by serosal application of BAC essentially eliminates neuronally mediated responses without a concomitant alteration in muscle contractility. To investigate if the action of OFQ is mediated via intramural myenteric plexus, BAC (0.1%) was applied to the serosal surface of the proximal colon every 5 min for 30 min and then rinsed off with saline. Saline-treated group served as controls. Two weeks after BAC- or saline-treatment, the longitudinal muscle strips were used for the organ bath experiments.
The area under the curve was calculated using Planix 7 (Sokkia Corporation,Overland Park, Kans.) and expressed as a motility index. The area under the curve of basal contraction was evaluated over 10 min in each experiment. The area under the curve of antagonist-induced contractions and OFQ-induced contractions was also evaluated over 10 min. The motility index was compared between basal contractions and OFQ-induced contractions in each experiment.

[6] = system: longitudinal muscle from the rat proximal colon
colonic transit = system: colonic transit; design: species or system rats; conditions: rat, in vivo, sc
proximal colon = system: proximal colon; design: species or system rats; conditions: rat, in vivo, iv
[7] = system: 3H-ACh release from longitudinal muscle strips of gastric body; design: species or system rat
[8] = system: longitudinal and circular muscle of the rat proximal colon
opioid receptor = conditions: cited from earlier work
[9] = system: longitudinal and circular muscle from rat colon (proximal colon and distal colon)
[10] = system: 3H-ACh release from longitudinal muscle strips of proximal colon; design: species or system rat
[11] = system: longitudinal and circular muscle layer from the stomach and small intestine; design: species or system rat
[12] = system: 3H-ACh release from longitudinal muscle strips of ileum; design: species or system rat
guinea pig ileum = conditions: cited from earlier work
gastrointestinal transit = system: gastrointestinal transit; design: species or system rats; conditions: rat, in vivo, sc
stomach = system: stomach; design: species or system rats; conditions: rat, in vivo, iv
mouse vas deferens = conditions: cited from earlier work
[13] = patients after abdominal / gastrointestinal surgery, literature trials

## CN1[C@@H]2CC[C@H]1C[C@@H](OC(=O)C(CO)c1ccccc1)C2 (stereo partly shown) [atropine, Atropine, reference compound]
[1]
  EFS-evoked on- and off-contraction reduced to: 10-20%
[2]
  effect of antagonist on OFQ-induced contractions: did not affect
[3]
  EFS-evoked on- and off-contraction reduced to: 10-20%
[4]
  EFS-evoked on- and off-contraction reduced to: 10-20%

## COc1cc(N)c(Cl)cc1C(=O)NC1CCN(CCCOc2ccc(F)cc2)CC1OC (stereo not shown) [cisapride, Cisapride]
post-operative ileus; [13]
  duration of post-operative ileus, treated vs placebo/control patients: no difference
IBS patients
  stool frequency in IBS patients: increase stool frequency
  whole gut transit in IBS patients: accelerate whole gut transit
Colonic motility
  effect on colonic motility: little effect
  efficacy in constipated patients: not very effective

## C[N+](C)(C)CCCCCC[N+](C)(C)C [hexamethonium]
[2]
  effect of antagonist on OFQ-induced contractions: did not affect

## N=C(N)NCCN1CCCCCCC1 [guanethidine]
[2]
  effect of antagonist on OFQ-induced contractions: not affected

## CC(C)NCC(O)COc1cccc2ccccc12 (stereo not shown) [propranolol]
[2]
  effect of antagonist on OFQ-induced contractions: not affected

## [D-Pro^4, D-Trp7.9]-substance P 4-11 [substance P antagonist]
[2]
  effect of antagonist on OFQ-induced contractions: did not affect

## [p-chloro-D-Phe^6, LEU ^17 ]-VIP [VIP antagonist]
[2]
  antagonism of the action of VIP: significantly antagonized
  effect of antagonist on OFQ-induced contractions: did not affect
  effect on spontaneous contractions in the proximal colon: no significant effects

## CN1C[C@H](C(=O)N[C@]2(C)O[C@@]3(O)[C@@H]4CCCN4C(=O)[C@H](Cc4ccccc4)N3C2=O)C[C@@H]2c3cccc4[nH]cc(c34)C[C@H]21 [DHE, dihydroergotamine]
post-operative ileus; [13]
  duration of post-operative ileus, treated vs placebo/control patients: no significant differences

## Cc1ccc(N(CC2=NCCN2)c2cccc(O)c2)cc1 [phentolamine]
[2]
  effect of antagonist on OFQ-induced contractions: not affected

## CC(C)C[C@@H]1NC(=O)[C@H](C)NC(=O)[C@H]([C@@H](C)O)NC(=O)[C@H](CCC(=O)O)NC(=O)[C@@H]2CCCN2C(=O)[C@H](C)NC(=O)[C@H](CCCCN)NC(=O)[C@@H]2CSSC[C@@H](C(=O)N[C@@H](CCC(N)=O)C(=O)N[C@@H](CCC(N)=O)C(=O)N[C@@H](Cc3cnc[nH]3)C(N)=O)NC(=O)[C@H](CCCNC(=N)N)NC(=O)[C@H](CCCNC(=N)N)NC(=O)[C@H](C)NC(=O)[C@H](CSSC[C@H](N)C(=O)N[C@@H](CC(N)=O)C(=O)N2)NC1=O [apamin]
[2]
  effect of antagonist on OFQ-induced contractions: preserved
  effect on spontaneous contractions in the proximal colon: enhanced spontaneous contractions

## COc1ccc2c(c1)c(CC(=O)O)c(C)n2C(=O)c1ccc(Cl)cc1 [indomethacin]
[2]
  effect of antagonist on OFQ-induced contractions: did not affect

## C[N+](C)(C)CCOC(N)=O [carbachol, reference compound]
[5]; carbachol 10^-6 M
  contraction of control and BAC-treated tissues: contracted both control and BAC-treated tissues with the same degree
[6]
  contractions in the presence of TTX: caused further contractions

## dynorphin A [reference compound]
Colonic transit
  colonic transit: delays colonic transit

## COC(=O)[C@@H](N)CCCNC(=N)N[N+](=O)[O-] [L-NAME, NG-nitro-L-arginine methyl ester]
[2]
  effect of antagonist on OFQ-induced contractions: preserved
  effect on spontaneous contractions in the proximal colon: enhanced spontaneous contractions

## CCCCCCCCCCCCC[N+](C)(C)Cc1ccccc1 [BAC, benzalkonium chloride]
[5]; BAC 0.1% on serosal surface of proximal colon, two weeks before
  spontaneous basal muscle contraction in BAC-treated vs vehicle-treated tissues: significantly higher
[5]; EFS 65 V, 0.5 msec, 10 Hz
  response to EFS of muscle strips from BAC-treated rats: failed to cause any responses

## CC(C)C[C@H](NC(=O)[C@H](CCCCN)NC(=O)[C@H](CCCN=C(N)N)NC(=O)[C@H](C)NC(=O)[C@H](CO)NC(=O)[C@H](CCCCN)NC(=O)[C@H](CCCN=C(N)N)NC(=O)[C@H](C)NC(=O)CNC(=O)[C@@H](NC(=O)[C@H](Cc1ccccc1)NC(=O)CNC(=O)CNC(=O)[C@@H](N)Cc1ccccc1)[C@@H](C)O)C(=O)N[C@@H](C)C(=O)N[C@@H](CC(N)=O)C(=O)N[C@@H](CCC(N)=O)C(=O)O [OFQ, Phe-Gly-Gly-Phe-Thr-Gly-Ala-Arg-Lys-Ser-Ala-Arg-Lys-Leu-Ala-Asn-Gln]
[5]
  contraction of longitudinal muscle from vehicle-treated rats: caused significant contractions
  contraction of longitudinal muscles from BAC-treated rats: no contractile effects
Proximal colon
  muscular contractions in the proximal colon: significantly increased muscular contractions
[7]
  3H-ACh release in response to EFS reduced to: 88.1±4.3%
  basal release of 3H-ACh: no effects
[1]
  EFS-evoked muscular contraction reduced to: 85.2±5.6%
  EFS-evoked of-contraction in the stomach: significantly reduced
  dose dependence of reduction of EFS-evoked muscular contraction: in a dose dependent manner
[8]
  contractions at 10^-7 M compared with 10^-6 M: not significantly different
  dose dependence of induced contractions: in a dose-dependent manner
  maximal effect, increase of basal contraction: 278%±24% and 215%±32%
  persistence of strong phasic contractions: 10 to 15 min
  strips showing a potent initial phasic contraction followed by a phasic response: 60.9%
  strips showing a smaller initial contraction followed by a gradually increasing phasic response: 26.4%
  strips showing only a slight initial contraction followed by a pronounced phasic response: 12.6%
Opioid receptor
  activity at the opioid receptor: does not show any activity
Colonic transit
  colonic transit: significantly accelerated
[2]
  OFQ-induced contractions in Ca2+-free medium: abolished
[3]
  EFS-evoked muscular contraction reduced to: 41.2±8.5%
  EFS-evoked on- and off-contraction in ileum: significantly reduced
  dose dependence of reduction of EFS-evoked muscular contraction: in a dose dependent manner
[9]
  contractions in longitudinal muscle of proximal colon compared with distal colon (in words): much greater
  contractions in longitudinal muscle of proximal colon relative to distal colon: 2-3 fold
  region of rat gastrointestinal tract in which contractions were induced: induced contractions only in the colon
  threshold OFQ concentration inducing contractions: 10^-9 M
[10]
  basal release of 3H-ACh: no effects
  inhibitory effect on EFS-evoked 3H-ACh release: not observed
[4]
  off-contraction in response to EFS of the proximal colon: no inhibitory effects
  reduction of EFS-evoked muscular contraction: not in the proximal colon
[11]
  contractions in longitudinal and circular muscle layer from stomach and small intestine: failed to elicit significant contractions
[6]
  OFQ-induced contractions in the presence of TTX: failed to elicit additional contractions
[12]
  3H-ACh release in response to EFS reduced to: 44.7±5.8%
  basal release of 3H-ACh: no effects
Guinea pig ileum
  effect on EFS-evoked muscular contraction: potent inhibitory effects
Gastrointestinal transit
  gastrointestinal transit: without affecting
stomach
  muscular contractions in the stomach: not in the stomach
Mouse vas deferens
  effect on EFS-evoked muscular contraction: potent inhibitory effects

## CC[C@@H](CO)NC(=O)[C@@H]1C=C2c3cccc4c3c(cn4C)C[C@H]2N(C)C1 [methysergide]
[2]
  effect of antagonist on OFQ-induced contractions: did not affect

## CCN(CC)CCNC(=O)c1cc(Cl)c(N)cc1OC [metoclopramide]
Colonic motility
  effect on colonic motility: little effect
  efficacy in constipated patients: not very effective

## C=CCN1CC[C@]23c4c5ccc(O)c4O[C@H]2C(=O)CC[C@@]3(O)[C@H]1C5 [naloxone]
[2]; 10 min preincubation, then OFQ (10^-8 M), atropine 10^-6 M, hexamethonium 10^-4 M, naloxone 10^-5 M, indomethacin 10^-5 M, methysergide 3x10^-5 M, substance P antagonist 10^-5 M, VIP antagonist 5x10^-6 M, L-NAME 10^-4 M, apamin 10^-6 M, guanethidine, phentolamine, propranolol 10^-6 M
  effect of antagonist on OFQ-induced contractions: did not affect

B1: cholecystokinin (peptide, UniProt P06307 21-115, looked up)
Cholecystokinin: QPVPPADPAGSGLQRAEEAPRRQLRVSQRTDGESRAHLGALLARYIQQARKAPSGRMSIVKNLQNLDPSHRISDRDYMGWMDFGRRSAEEYEYPS
modifications: Cholecystokinin
post-operative ileus; human, in vivo
  duration of post-operative ileus, treated vs placebo/control patients: no differences
